22 molecules from PubChem BioAssay (NCI) can be followed below.

Where “and” joins values, the source holds several entries; their conditions need not be identical. Equal values may be shown once.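 A five-concentration, 48-hour dose response in 96-well plates underlies each endpoint, interpolated linearly between surrounding concentrations. GI50 = concentration required for 50% inhibition of growth. TGI marks complete inhibition of growth.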

In one assay the test system is SN12C renal. Put plainly: DTP human tumour cell line panel, 48 h.
`O=C(Cc1nc2ccc(C(=O)c3ccccc3)cc2[nH]c1=O)C(=O)Nc1ccc(Br)cc1` showed a concentration for total growth inhibition (TGI) above 100 µM.
Same read-out and setting: under `Cc1cc2c(c(C(=O)NCCC(=O)O)c1)Oc1c(cc(C)cc1C(=O)NCCC(=O)O)S2` stands above 100 µM.

For a further assay, the system named is SNB-75 CNS. Put plainly: DTP human tumour cell line panel, 48 h.
As to `Cc1cn(C2CC(N)C(CN)O2)c(=O)[nH]c1=O` (stereo not drawn), the TGI was above 100 µM.
On the same count and under the same terms, the figure for `COc1ccc2c(c1)c1c(n2CCN2CCOCC2)-c2ccccc2CC1` is above 100 µM.
As to `CCCCCCCCCC[C@@H](O)[C@H]1CC[C@H]([C@H]2CC[C@H]([C@H](O)CCCCCCCCCC[C@@H]3CC(CC(C)=O)C(=O)O3)O2)O1` (stereo partly drawn), the GI50 is 3.88 µM and the TGI was above 50 µM.
As for `CC(C)(C)C(=O)C(CC(=O)c1ccccc1)C(=O)C(C)(C)C`, the TGI was above 100 µM.
`Cc1cn(C2C=CC(COP(=O)(OCC3=CC(=O)c4ccccc4C3=O)N(C)CCCCCl)O2)c(=O)[nH]c1=O` (stereo not drawn) yielded a TGI of 11.9 µM.
Still for that read-out and setting: the figure for `Clc1nc(Cl)nc(NC23CC4CC(CC(C4)C2)C3)n1` is 36.5 µM; for `CCOC(=O)c1cc2c([N+](=O)[O-])c(NC(C)=O)ccc2s1` it is 94.1 µM; for `COc1cc2oc(-c3ccc(O)cc3)c(OC3OC(C)C(O)C(O)C3O)c(=O)c2c(O)c1OC` (stereo not drawn) it is above 100 µM.
Regarding `COC(=O)C1(Cc2ccccc2)Cc2cc3c(cc2C1=O)CCC3` (stereo not drawn), the TGI was above 100 µM.
The molecule `COc1ccc(N2C(=O)C3c4[nH]c5ccc([N+](=O)[O-])cc5c4C4CCC(C(C)(C)C)CC4C3C2=O)cc1` (stereo not drawn) registered a TGI above 100 µM.
Consider `COC(=O)C1=C(C(=O)OC)C2OC1C1C2C2(C)C(C)=C(C)C1(C)S2=O` (stereo not drawn), for which the TGI is 38.1 µM. This lies in the double-digit micromolar range.
With `O=C(O)c1ccc(NC(c2ccccc2)c2ccc3cccnc3c2O)cc1` (stereo not drawn), the TGI stood at 56.7 µM.
The molecule `O=c1[nH]c2nc3ccccc3c(=O)n2/c1=C/c1ccc(O)cc1` returned a TGI above 100 µM.
On the same count and under the same terms, the figure for `CC[C@@H]1CC[C@@H]2[C@H](CC[C@]3(C)[C@@H](O)CC[C@@H]23)[C@H]1C(=O)O` is above 100 µM; for `Nc1nc(Cl)cc(NCC2(CO)CC(CCc3ccccc3)C2)n1` (stereo not drawn) it is above 90.2 µM; for `O=c1c2ccccc2[nH]c(=S)n1-c1ccc(N=Nc2cccc3c(O)cccc23)cc1` it is above 100 µM.
Molecule `c1cc2nnc1SCCSCCSc1ccc(nn1)SCCSCCS2` returned a concentration for total growth inhibition (TGI) of 77.3 µM.
Take `COc1ccc(-c2c(C#N)c(S)n(C3OC(COC(C)=O)C(OC(C)=O)C(OC(C)=O)C3OC(C)=O)c(=O)c2C#N)cc1` (stereo not drawn): the TGI is 60.6 µM and 89 µM.
Take `C[C@]12OC[C@H](c3ccccc3)N1C(=O)C1[C@H]2CC12SCCS2` (stereo partly drawn): the TGI is above 100 µM.
The same measure, in the same setting: the figure for `O=C(Cc1nc2ccc(C(=O)c3ccccc3)cc2[nH]c1=O)C(=O)Nc1ccc(Br)cc1` is above 100 µM.
On the same count and under the same terms, under `Cc1c(/C=N\NC(=S)N2CCN(C(=S)N/N=C\c3c(C)n(C)n(-c4ccccc4)c3=O)CC2)c(=O)n(-c2ccccc2)n1C` stands 48.7 µM.
The same measure, in the same setting: under `Cc1cc2c(c(C(=O)NCCC(=O)O)c1)Oc1c(cc(C)cc1C(=O)NCCC(=O)O)S2` stands above 100 µM.

A further assay concerns T-47D breast. Put plainly: DTP human tumour cell line panel, 48 h.
Molecule `Cc1cn(C2CC(N)C(CN)O2)c(=O)[nH]c1=O` (stereo not drawn) returned a TGI above 100 µM.
On the same count and under the same terms, the figure for `COc1ccc2c(c1)c1c(n2CCN2CCOCC2)-c2ccccc2CC1` is above 100 µM; for `CCCCCCCCCC[C@@H](O)[C@H]1CC[C@H]([C@H]2CC[C@H]([C@H](O)CCCCCCCCCC[C@@H]3CC(CC(C)=O)C(=O)O3)O2)O1` (stereo partly drawn) it is above 50 µM.
`CC(C)(C)C(=O)C(CC(=O)c1ccccc1)C(=O)C(C)(C)C`: the concentration for total growth inhibition (TGI) is above 100 µM.
In turn, `Cc1cn(C2C=CC(COP(=O)(OCC3=CC(=O)c4ccccc4C3=O)N(C)CCCCCl)O2)c(=O)[nH]c1=O` (stereo not drawn) showed a concentration for total growth inhibition (TGI) of 9.26 µM.
Same read-out and setting: under `Clc1nc(Cl)nc(NC23CC4CC(CC(C4)C2)C3)n1` stands 42.6 µM.
Still for that read-out and setting: the figure for `CCOC(=O)c1cc2c([N+](=O)[O-])c(NC(C)=O)ccc2s1` is 61.2 µM.
The same measure, in the same setting: under `COc1cc2oc(-c3ccc(O)cc3)c(OC3OC(C)C(O)C(O)C3O)c(=O)c2c(O)c1OC` (stereo not drawn) stands above 100 µM; under `COC(=O)C1(Cc2ccccc2)Cc2cc3c(cc2C1=O)CCC3` (stereo not drawn), 66.6 µM.
Turning to `COc1ccc(N2C(=O)C3c4[nH]c5ccc([N+](=O)[O-])cc5c4C4CCC(C(C)(C)C)CC4C3C2=O)cc1` (stereo not drawn), the TGI was above 100 µM.
The same measure, in the same setting: the figure for `COC(=O)C1=C(C(=O)OC)C2OC1C1C2C2(C)C(C)=C(C)C1(C)S2=O` (stereo not drawn) is 22.2 µM; for `O=C(O)c1ccc(NC(c2ccccc2)c2ccc3cccnc3c2O)cc1` (stereo not drawn) it is 50.1 µM.
Still for that read-out and setting: under `O=c1[nH]c2nc3ccccc3c(=O)n2/c1=C/c1ccc(O)cc1` stands above 100 µM.
The same measure, in the same setting: the figure for `CC[C@@H]1CC[C@@H]2[C@H](CC[C@]3(C)[C@@H](O)CC[C@@H]23)[C@H]1C(=O)O` is above 100 µM; for `Nc1nc(Cl)cc(NCC2(CO)CC(CCc3ccccc3)C2)n1` (stereo not drawn) it is above 29.1 µM.
Take `O=c1c2ccccc2[nH]c(=S)n1-c1ccc(N=Nc2cccc3c(O)cccc23)cc1`: the TGI is above 100 µM.
Same read-out and setting: under `c1cc2nnc1SCCSCCSc1ccc(nn1)SCCSCCS2` stands above 100 µM; under `COc1ccc(-c2c(C#N)c(S)n(C3OC(COC(C)=O)C(OC(C)=O)C(OC(C)=O)C3OC(C)=O)c(=O)c2C#N)cc1` (stereo not drawn), > 100 µM and 52.5 µM; under `C[C@]12OC[C@H](c3ccccc3)N1C(=O)C1[C@H]2CC12SCCS2` (stereo partly drawn), above 100 µM.
The same measure, in the same setting: the figure for `O=C(Cc1nc2ccc(C(=O)c3ccccc3)cc2[nH]c1=O)C(=O)Nc1ccc(Br)cc1` is above 100 µM; for `Cc1c(/C=N\NC(=S)N2CCN(C(=S)N/N=C\c3c(C)n(C)n(-c4ccccc4)c3=O)CC2)c(=O)n(-c2ccccc2)n1C` it is above 100 µM; for `Cc1cc2c(c(C(=O)NCCC(=O)O)c1)Oc1c(cc(C)cc1C(=O)NCCC(=O)O)S2` it is above 100 µM.

In another assay the test system is UO-31 renal. As to the kind of experiment: DTP human tumour cell line panel, 48 h.
In turn, `Cc1cn(C2CC(N)C(CN)O2)c(=O)[nH]c1=O` (stereo not drawn) came in with a TGI above 100 µM.
Still for that read-out and setting: the figure for `COc1ccc2c(c1)c1c(n2CCN2CCOCC2)-c2ccccc2CC1` is above 100 µM.
As for `CCCCCCCCCC[C@@H](O)[C@H]1CC[C@H]([C@H]2CC[C@H]([C@H](O)CCCCCCCCCC[C@@H]3CC(CC(C)=O)C(=O)O3)O2)O1` (stereo partly drawn), the GI50 is 1.66 µM and the total growth inhibition concentration (TGI) was above 50 µM.
With `CC(C)(C)C(=O)C(CC(=O)c1ccccc1)C(=O)C(C)(C)C`, the TGI is above 100 µM.
Still for that read-out and setting: the figure for `Cc1cn(C2C=CC(COP(=O)(OCC3=CC(=O)c4ccccc4C3=O)N(C)CCCCCl)O2)c(=O)[nH]c1=O` (stereo not drawn) is 25.4 µM; for `Clc1nc(Cl)nc(NC23CC4CC(CC(C4)C2)C3)n1` it is 23.5 µM.
Same read-out and setting: the figure for `CCOC(=O)c1cc2c([N+](=O)[O-])c(NC(C)=O)ccc2s1` is above 100 µM.
Same read-out and setting: under `COC(=O)C1(Cc2ccccc2)Cc2cc3c(cc2C1=O)CCC3` (stereo not drawn) stands above 100 µM; under `COc1ccc(N2C(=O)C3c4[nH]c5ccc([N+](=O)[O-])cc5c4C4CCC(C(C)(C)C)CC4C3C2=O)cc1` (stereo not drawn), 51.6 µM.
`COC(=O)C1=C(C(=O)OC)C2OC1C1C2C2(C)C(C)=C(C)C1(C)S2=O` (stereo not drawn) had a TGI of 17.6 µM. Against the preceding molecule, the TGI is about 2.9-fold lower.
The same measure, in the same setting: under `O=C(O)c1ccc(NC(c2ccccc2)c2ccc3cccnc3c2O)cc1` (stereo not drawn) stands 34.6 µM.
The same measure, in the same setting: under `O=c1[nH]c2nc3ccccc3c(=O)n2/c1=C/c1ccc(O)cc1` stands above 100 µM.
The same measure, in the same setting: the figure for `CC[C@@H]1CC[C@@H]2[C@H](CC[C@]3(C)[C@@H](O)CC[C@@H]23)[C@H]1C(=O)O` is above 100 µM; for `Nc1nc(Cl)cc(NCC2(CO)CC(CCc3ccccc3)C2)n1` (stereo not drawn) it is above 100 µM.
`O=c1c2ccccc2[nH]c(=S)n1-c1ccc(N=Nc2cccc3c(O)cccc23)cc1` showed a TGI above 100 µM.
Same read-out and setting: the figure for `c1cc2nnc1SCCSCCSc1ccc(nn1)SCCSCCS2` is above 100 µM; for `COc1ccc(-c2c(C#N)c(S)n(C3OC(COC(C)=O)C(OC(C)=O)C(OC(C)=O)C3OC(C)=O)c(=O)c2C#N)cc1` (stereo not drawn) it is > 100 µM and 70.1 µM.
Still for that read-out and setting: under `C[C@]12OC[C@H](c3ccccc3)N1C(=O)C1[C@H]2CC12SCCS2` (stereo partly drawn) stands above 100 µM; under `O=C(Cc1nc2ccc(C(=O)c3ccccc3)cc2[nH]c1=O)C(=O)Nc1ccc(Br)cc1`, above 100 µM.
Still for that read-out and setting: the figure for `Cc1c(/C=N\NC(=S)N2CCN(C(=S)N/N=C\c3c(C)n(C)n(-c4ccccc4)c3=O)CC2)c(=O)n(-c2ccccc2)n1C` is above 100 µM.
